Measurements as given in patent publication US9956267B2, “Method of treating skeletal dysplasias using vessel dilator” (University of South Florida, priority 2010, dated 2018).
Where “and” joins values, the source holds several entries; their conditions need not be identical. Equal values may be shown once. Positions of bridges follow the written chain, without caps; N, C: chain ends. No end group written: not given here.

Experiments:
[1] = system: ERK 1/2 kinases; settings: ATDC5 cells, mouse chondrogenic cell line; cited from earlier work
[2] = in vivo; cited from earlier work
[3] = system: human osteoblast cells (ATCC number CRL-11372); test: Cell Titer 96 Aqueous One Solution (MTS) cell proliferation assay of human osteoblasts; assay type: cell-based; settings: for enhancement of human osteoblast proliferation compared with controls: absorbance at 490 nm at day 7
Experimental: A cell line (ATCC number CRL-11372) of human osteoblast cells was purchased from the American Type Culture […] (ATCC, Manassas, Va.). Propagation of the human osteoblast cells was in a 1:1 mixture of Ham's F12 Medium and Dulbecco's Modified Eagles Medium (DMEM) with 2.5 mM L-glutamine without phenol red. Base medium was supplemented with 0.3 mg/mL of Geneticin (G418) antibiotic and 10% fetal bovine serum (Harris S A, et al. 1995 Developmental and characterization of a conditionally immortalized human fetal osteoblastic cell line. J Bone Miner Res 10:178-186). Cells were incubated at a temperature of 34° C. in 5% CO2 at which they have rapid cell division, doubling every 36 hours (Harris S A, et al. 1995 Developmental and characterization of a conditionally immortalized human fetal osteoblastic cell line. J Bone Miner Res 10:178-186). […] Cells were dispensed into new flasks with subculturing every 6-8 days. The medium was changed every 3 days.
After the osteoblast cells were subcultured for 24 h, ˜5000 cells in 200 μL of the above media were then seeded (day 1) into 96-well plates (Nuclon, Roskilde, Denmark). After overnight incubation at 34° C. in 5% CO2, the media was removed (day 2), and 50 μL of fresh media was added to control wells, blank wells (with no cells inside), and 50 μL of media with 10 picomolar (pM), 100 pM, 1 nanomolar (nM), or 10 nM of CNP or vessel dilator. At day 5, in these experiments, 50 μL of fresh media was added to the controls, blank wells, and 50 μL of media with 1 nM, 10 nM, 10 pM, and 100 pM of the respective natriuretic hormones for a total volume of 100 μL of media in each well. At day 7, 20 μL of Cell Titer 96® Aqueous One Solution (Promega Corporation, Madison, Wis.) was added to each well containing 1004 of medium and allowed to incubate for 4 h in 5% CO2 atmosphere before recording absorbance at 490 nm with a 96-well plate reader (Cory A H, et al. 1991 Use of aqueous soluble tetrazolium/formazan assay for growth assays in culture. Cancer Commun 3:207-212). There were 15 observations of vessel dilator at each concentration and 16 observations of CNP at each concentration. The peptide hormones used in this investigation were from Phoenix Pharmaceuticals, Inc., Burlingame, Calif.
Cell proliferation of human osteoblasts was examined with the Cell Titer 96 Aqueous One Solution cell proliferation assay (Promega Corp.). This colorimetric method determines the viable cells' proliferation by recording the absorption at 490 nm with a 96-well plate reader (Cory A H, et al. 1991 Use of aqueous soluble tetrazolium/formazan assay for growth assays in culture. Cancer Commun 3:207-212) after incubating the respective cells at 37° C. for 4 h in a 5% CO2 atmosphere.
Approximately 5000 human osteoblast cells were in each well. The proliferation assay detects the number of viable cells in proliferation using a tetrazolium compound (3-[4,5-dimethylthiazol-2-yl]-5-[3-carboxymethoxyphenyl]-2-[4-sulfophenyl]-2H-tetrazolium, inner salt; MTS) and an electron coupling reagent [phenazine ethosulfate (PES)]. PES has enhanced chemical stability, which allows it to be combined with MTS to form a stable solution (Cory A H, et al. 1991 Use of aqueous soluble tetrazolium/formazan assay for growth assays in culture. Cancer Commun 3:207-212). The MTS tetrazolium compound (Owen's reagent) is bioreduced by living cells into a colored formazan product that is measurable at […] in a spectrophotometer, thereby eliminating any nonviable (i.e. dead) cells that would not be proliferating (Cory A H, et al. 1991 Use of aqueous soluble tetrazolium/formazan assay for growth assays in culture. Cancer Commun 3:207-212). This method measure only viable cells' proliferation as dead cells are unable to reduce the MTS tetrazolium compound to a colored formazan product.
All data are expressed as mean±SEM. Statistical significance was determined by the Mann-Whitney test (also called Wilcoxon rank-sum test) for different sample sizes. […]

[4] = system: cyclic GMP (cGMP) in chondrocytes; settings: CNP versus ANP; cited from earlier work
[5] = duration of biologic effects of natriuretic peptides; assay type: in vivo, human; settings: versus CNP
Experimental: (§1) CNP and ANP are ring-structured natriuretic peptides with very short half-lives of <3 min in the circulation (Kalra P R, et al. 2001 The role of C-natriuretic peptide in cardiovascular medicine. Eur Heart J 22:997-1007, Teixeira C C, et al. 2008 Nitric oxide, C-type natriuretic peptide and cGMP as regulators of endochondral ossification. Dev Biol 319:171-178; Nakao K, et al. 1986 The pharmacokinetics of α-human natriuretic polypeptide in healthy subjects. Eur J Clin Pharmacol 31:101-103; Yandle T G, et al. 1986 Metabolic clearance rate and plasma half life of alpha-human atrial natriuretic peptide in man. Life Sci 38:1827-1833). Their biologic effects last for <30 min. […] J Pharmacol Exp Ther 282:603-608) and its biologic effects last >6 h (Vesely D L, et al. 1994 Three peptides from the atrial natriuretic factor prohormone amino terminus lower blood pressure and produce diuresis, natriuresis, and/or kaliuresis in humans. Circulation 90:1129-1140).
(§2) The gene for CNP is expressed in bone (Mericq V, et al. 2000 Regulation of fetal rat bone growth by C-type natriuretic peptide and cGMP. Pediatr Res 47:189-193) to allow it to be an autocrine/paracrine regulator of bone. […] Life Sci 38:1827-1833; Ackerman B H, et al. 1997 Disposition of vessel dilator and long-acting natriuretic peptide in healthy humans after a one-hour infusion. […]

[6] = system: MEK 1/2 kinases; settings: proliferating prostate cancer cells; cited from earlier work
[7] = in vivo; cited from earlier work; remark: listed apart in the source
[8] = system: ERK 1/2 kinases; settings: cited from earlier work
[9] = circulatory half-life of natriuretic peptides; assay type: in vivo, human; settings: vessel dilator versus CNP
Experimental: as §1, §2

For `Nc1nc2c(nc(Br)n2[C@@H]2O[C@@H]3COP(=O)(O)O[C@H]3[C@H]2O)c(=O)[nH]1` [8-bromo cGMP], the “effect on mitogen- (fibroblast growth factor) stimulated ERK 1/2 kinases' phosphorylation” value [1] is listed as “inhibit”.

In the case of “BNP: natriuretic peptide named with CNP and ANP, biologic effects less than 30 minutes [reference compound]”, the “duration of biologic effects” value [2] is given as “less than 30 min”.

For “CNP: 22 amino acid peptide having a 17-amino acid ring, generated from the natriuretic peptide precursor C gene (GLSKGCFGLKLDRIGSMSGLGC; disulfide 6-22 (inferred); UniProt P23582 105-126, looked up) [reference compound]”, the “enhancement of human osteoblast proliferation compared with controls” value (shortened to “enhancement … compared with controls”) ([3]; 10 pM peptide) is listed as “no significant enhancement”, the “enhancement … compared with controls” value ([3]; 10 nM peptide) is listed as 27% and the “stimulation of cGMP in chondrocytes relative to ANP” value [4] is listed as 10 fold. The “effect on mitogen- (fibroblast growth factor) stimulated ERK 1/2 kinases' phosphorylation” value [1] was “inhibit”.

In the case of “Vessel dilator: linear natriuretic peptide synthesized by the ANP gene; cardiac hormone, molecular weight 3878.31 (EVVPPQVLSEPNEEAGAALSPLPEVPPWTGEVSPAQR; Vessel dilator; UniProt P01160 56-92, looked up)”, the “biologic effects longer than CNP, ANP or BNP” value [5] is given as 12 times and > 12 times, the “inhibition of activation, i.e. phosphorylation, of MEK 1/2 kinases” value [6] is given as 98% and the circulatory half-life [7] is given as 1.78 h. The “duration of biologic effect” value [7] was > 6 h, the “effect on mitogen (epidermal growth factor, EGF) stimulation of ERK 1/2 kinases” value ([8]; EGF stimulation) was “completely blocks” and the “inhibition of the phosphorylation of basal activity of ERK 1/2 kinases” value ([8]; proliferating cells, basal activity) was 96%. The “duration of biologic effects” value [2] was > 6 h, the “enhancement … compared with controls” value ([3]; 10 pM peptide) was 8% and the “enhancement … compared with controls” value ([3]; 100 pM peptide) was 7%. The “enhancement … compared with controls” value ([3]; 1 nM peptide) was 6%, the “enhancement … compared with controls” value ([3]; 10 nM peptide) was 8% and the “stimulates osteoblasts at lower concentrations than CNP” value ([3]; compared with CNP) was 1000. For the same compound, the “circulating half-life longer than CNP” value [9] was 36 fold.
